Experimental data as given in PMC4961458 (eLife, 2016).
Like-named read-outs stand apart in the source and are kept apart here.

Tests used:
MCF7 cells = assay: MCF7 cell viability assay (CellTiter-Glo); format: cell-based, human; details: for IC50 / EC50: Homo sapiens; for EC50: absence of exogenous estradiol, Figure 1E, read-out: MCF7 cell viability EC50 (-E2)
MR = target: T1, MR (Homo sapiens, UniProt P08235); assay: MR transcriptional reporter assay, agonist mode (HEPG2 cells); format: cell-based; details: % of maximal aldosterone-stimulated activity
T1 construct: expressed in transfected cells; host or cells: HEPG2
T1 sequence (P08235 1-984): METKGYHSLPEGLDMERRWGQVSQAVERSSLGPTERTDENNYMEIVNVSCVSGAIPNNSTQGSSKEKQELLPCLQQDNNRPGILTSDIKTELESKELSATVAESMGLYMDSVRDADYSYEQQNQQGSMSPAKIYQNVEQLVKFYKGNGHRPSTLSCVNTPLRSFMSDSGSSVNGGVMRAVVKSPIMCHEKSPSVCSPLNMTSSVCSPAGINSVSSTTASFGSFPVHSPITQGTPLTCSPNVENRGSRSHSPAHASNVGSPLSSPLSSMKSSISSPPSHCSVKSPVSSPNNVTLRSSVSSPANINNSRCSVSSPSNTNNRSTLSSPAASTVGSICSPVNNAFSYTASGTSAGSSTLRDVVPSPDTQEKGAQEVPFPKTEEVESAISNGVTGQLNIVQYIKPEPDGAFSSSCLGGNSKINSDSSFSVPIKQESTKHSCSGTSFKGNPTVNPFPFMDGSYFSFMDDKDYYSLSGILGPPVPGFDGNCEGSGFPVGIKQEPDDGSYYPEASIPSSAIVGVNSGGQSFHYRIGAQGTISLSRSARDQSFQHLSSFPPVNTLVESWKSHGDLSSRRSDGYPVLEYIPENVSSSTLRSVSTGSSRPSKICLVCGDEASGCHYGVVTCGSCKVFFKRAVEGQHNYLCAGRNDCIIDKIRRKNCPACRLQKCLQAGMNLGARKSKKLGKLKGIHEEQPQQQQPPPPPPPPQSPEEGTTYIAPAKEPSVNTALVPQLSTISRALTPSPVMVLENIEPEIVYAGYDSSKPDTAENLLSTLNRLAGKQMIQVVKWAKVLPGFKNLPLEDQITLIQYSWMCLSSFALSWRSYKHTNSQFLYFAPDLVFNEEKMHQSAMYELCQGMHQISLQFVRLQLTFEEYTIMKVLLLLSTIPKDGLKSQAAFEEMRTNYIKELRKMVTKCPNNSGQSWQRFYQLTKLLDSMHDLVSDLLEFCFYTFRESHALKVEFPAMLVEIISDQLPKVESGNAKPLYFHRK
Method: Transcriptional assays were performed by seeding 100 μL of cells at a density of 250,000 cells/mL into 96-well cell culture plates in RPMI 1640 supplemented with 5% charcoal-stripped serum and allowed to attach overnight. […] Triplicate transfections were performed using 418 ng reporter vector (2X PRE-Luciferase for PR-A and PR-B, MMTV-Luciferase for MR), 50 ng CMVpRL (normalization vector), 10 ng NHR expression vector (CMX-PR-A, pCDNA-PR-B or 6R-MR), and 0.7 μL lipofectin. […] The final agonist concentration used in the antagonist assays was 1 nM. Following 24 hr incubation, the medium was removed and the cells were lysed in 40 μL of lysis buffer (25 mM Tris Phosphate, 2 mM CDTA, 10% Glycerol, 0.5% Triton X-100, 2 mM DTT). Firefly luciferase activity was measured immediately following the addition of 40 μL luciferase buffer (20 mM tricine, 0.1 mM EDTA, 1.07 mM (MgCO3)4 Mg(OH)2· 5H2O, 2.67 mM MgSO4, 33.3 mM DTT, 270 μM Coenzyme A, 470 μM luciferin, 530 μM ATP).

MCF7 ER.WT cells = assay: Cell viability, MCF7 ER.WT cells (7 days); format: cell-based; details: Homo sapiens; for EC50: absence of estrogen; for IC50: presence of estrogen (0.1 nM), read-out: Cell viability IC50, ER.WT +E2
[1] = test system: Ishikawa endometrial cells; assay: Alkaline phosphatase activity in Ishikawa endometrial cells; format: cell-based, human; details: absence of estrogen
WHIM20 tumors = format: in vivo, mice; details: no E2 pellets; GDC-0810 100 mg/kg/day; tamoxifen 60 mg/kg/day; fulvestrant 50 mg/kg days 1, 3 and 7, 25 mg/kg weekly thereafter; 35 days
Text: Figure 8. […] (B) Gene expression analysis of WHIM20 tumors after 4 days of dosing, harvested 8 hr after the final dose. […] (E) WHIM20 tumors were implanted in mice without supplemental 17β-estradiol pellets.
The WHIM20 patient derived xenograft model (WHIM20) was established via direct implantation of metastatic tumor material into immune compromised mice at Washington University in St. Louis ([Li et al., 2013]).
Tumors were established from fragments obtained from Washington University by subcutaneous implantation via 10G trocar into the right flank of 6–7 week old female NOD.CB17-Prkdc^scid/NcrCrl mice (Charles River Laboratories) and NOD.Cg-Prkdc^scid Il2rg^tm1Wjl/SzJ mice (Jackson Laboratories). Tumor line was propagated by serial transplantation. Animals were ovariectomized prior to initiation of treatment.

[2] = 120 h, MCF7, 5 d incubation, read-out: Cell viability CellTiter-Glo IC50
[3] = MCF7, 120 h, read-out: MCF7 cell viability IC50 (+ 0.1nM E2), presence of 0.1 nM estradiol, 5 day, Figure 1F
[4] = MCF7, 168 h, 7 days, read-out: Cell viability EC50, ER.WT -E2

`CC/C(=C(\c1ccc(O)cc1)c1ccc(OCCN(C)C)cc1)c1ccccc1` [4-OH Tam, 4-hydroxytamoxifen] showed an IC50 (MCF7 cells; [2]) of 0.53 ± 0.25 nM, an IC50 (MCF7 cells; [3]) of 30 nM and an EC50 (MCF7 cells; MCF7, 120 h, 5 day) of 3.9 nM. The “Cell viability CellTiter-Glo Emax” value (MCF7 cells; MCF7, 5 d incubation) was 48.0 ± 4.7 % E2, the Emax (MR) was 0% and the EC50 (MCF7 ER.WT cells; [4]) was 3.2 nM. The IC50 (MCF7 ER.WT cells; MCF7, 168 h, 7 days) was 19 nM and the Alkaline phosphatase activity [1] was “robustly increases alkaline phosphatase activity”.

`C[C@]12CC[C@@H]3c4ccc(O)cc4C[C@@H](CCCCCCCCC[S+]([O-])CCCC(F)(F)C(F)(F)F)[C@H]3[C@@H]1CC[C@@H]2O` (some centres unmarked) [Fulvestrant] was tested, and the IC50 (MCF7 cells; [2]) was 0.56 ± 0.7 nM, the IC50 (MCF7 cells; [3]) was 9 nM and the EC50 (MCF7 cells; MCF7, 120 h, 5 day) was 0.5 nM. The “Cell viability CellTiter-Glo Emax” value (MCF7 cells; MCF7, 5 d incubation) was 25.4 ± 3.7 % E2, the EC50 (MCF7 ER.WT cells; [4]) was 1.1 nM and the IC50 (MCF7 ER.WT cells; MCF7, 168 h, 7 days) was 23 nM. For the same compound, the “Tumor growth response, WHIM20 PDX” value (WHIM20 tumors) was “tumor growth inhibition” and the Alkaline phosphatase activity [1] was “shows no such effect”.

Work on `CC/C(=C(/c1ccc(/C=C/C(=O)O)cc1)c1ccc2[nH]ncc2c1)c1ccc(F)cc1Cl` [GDC-0810] yielded an IC50 (MCF7 cells; [2]) of 2.5 ± 2.1 nM, an IC50 (MCF7 cells; [3]) of 25 nM and an EC50 (MCF7 cells; MCF7, 120 h, 5 day) of 1 nM. The “Cell viability CellTiter-Glo Emax” value (MCF7 cells; MCF7, 5 d incubation) was 24.6 ± 3.3 % E2, the Emax (MR) was 0.09 ± 0.16% and the EC50 (MCF7 ER.WT cells; [4]) was 1 nM. The IC50 (MCF7 ER.WT cells; MCF7, 168 h, 7 days) was 28 nM, the EC50 (MCF7 ER.WT cells; MCF7, Figure 6—figure supplement 1D, read-out: Cell viability EC50, ER.WT (-E2)) was 0.7 nM and the “Tumor growth response, WHIM20 PDX” value (WHIM20 tumors) was “induced tumor stasis”. For the same compound, the Alkaline phosphatase activity [1] was “modestly increases alkaline phosphatase activity”.
